Test results published in article PMC7434981, “Development of a Novel Positron Emission Tomography (PET) Radiotracer Targeting Bromodomain and Extra-Terminal Domain (BET) Family Proteins” (Frontiers in Molecular Biosciences, 2020).

Assays:
[1] = molecular target: BET BD1; parameters: method as in Zhao et al., 2018; conditions: ref Zhao et al., 2018, cited from earlier work
[2] = test system: non-BET bromodomain-containing proteins; parameters: method as in Zhao et al., 2018; conditions: ref Zhao et al., 2018; cited from earlier work
[3] = Dynamic PET/CT imaging in mice, baseline uptake and biodistribution; assay type: in vivo, male Balb/c mice
Procedure: Following the successful radiosynthesis, we stepped forward to evaluate [^11C]1 as a potential BET PET radiotracer by PET imaging experiments in rodents. Dynamic PET imaging in male Balb/c mice was conducted following the injection of [^11C]1 via the tail vein at the dose of 3.7–7.4 Mbq for each scan. Each dynamic PET imaging scan lasted for 60 min and followed by a 10-min of computed tomography (CT) scan. The PET/CT imaging analysis was then performed by dynamic data collection and image reconstruction. The biodistribution of [^11C]1 in the whole-body of mice is initially studied. As depicted in Figure 2, four time-points (5, 10, 30, and 60 min) after [^11C]1 injection were selected to evaluate the uptake, biodistribution, and clearance of the radioligand in the organs of interests. […] In the heart, spleen, and lung, the uptakes of radioligand reached a peak sharply and followed by gradual wash-out post-injection.
(§1) The general procedure for rodent PET/CT studies was described previously ([Bai et al., 2019], [2020a]). Briefly, the PET/CT scan was carried out by a Triumph Trimodality/SPECT scanner (Gamma Medica, Northridge, CA, United States). Mice were arranged under anesthetized 2% isoflurane (Patterson Vet Supply, Inc., Greeley, CO, United States) in a carrier of 2 L/min medical oxygen during the imaging scanning. [^11C]1 (3.7–7.4 Mbq per animal, n = 2) was injected in mice via a lateral tail vein catheterization before PET acquisition. For the blocking study, the radioligand was administrated after CF53, or JQ1 was injected via a lateral tail vein catheterization 5-min before the start of PET acquisition. Dynamic PET acquisition lasted for 60 min followed by 10-min CT for anatomic co-registration. PET data were reconstructed using a 3D-MLEM method resulting in full width at a half-maximum resolution of 1 mm. These files were imported and analyzed using AMIDE ([Loening and Gambhir, 2003]) (a medical imaging data examiner) software (an open-source software, Los Angeles, CA, United States) and PMOD (PMOD 4.01, PMOD Technologies Ltd., Zurich, Switzerland).
(§2) Dynamic PET data were collected and the corresponding images were reconstructed by 3D-MLEM method resulting in full width at a half-maximum resolution of 1 mm. Volumes of interest (VOIs) were generated manually in forms of spheres under the guide of high-resolution CT structural images. TACs were exported as decay-corrected activity per unit volume. The TACs were expressed as percent injected dose per unit volume (%ID/cc) for analysis.

[4] = test system: BET proteins; test: PET/CT blocking studies in mice (specific binding); assay type: in vivo; conditions: for radioactivity reduction in the whole-brain: based on TACs; for decrease of radioligand concentration in organs of interest: average over organs
Procedure: To evaluate the specific binding of [^11C]1, the blocking studies were carried out. Mice were pre-treated with unlabeled 1 (1.0 mg/kg) and JQ1 (1.0 mg/kg) at 5-min prior to the administration of [^11C]1. The PET/CT imaging and time-activity curves (TAC) of baseline and blocking studies are shown separately in Figure 3.
as §1, §2

Compound	Ki ([1]; binding affinity to BET BD1)	Kd ([1]; to BET BD1, printed in Figure 1)	selectivity over non-BET bromodomain-containing proteins [2]	distribution in blood-rich organs ([3]; heart, liver and kidney, i.v. tail vein, 5-60 min post-injection)	time of max brain uptake ([3]; post-injection, whole brain)	brain-blood barrier (BBB) penetration ([3]; whole brain PET)	max brain uptake ([3]; whole-brain analysis, i.v.)	radioactivity reduction in the whole-brain ([4]; JQ1-blocking (1.0 mg/kg JQ1))	decrease of radioligand concentration in organs of interest ([4]; JQ1-blocking: pre-treated with JQ1 (1.0 mg/kg) 5 min prior)	radioactivity reduction in the whole-brain ([4]; self-blocking (1.0 mg/kg CF53))	decrease of radioligand concentration in organs of interest ([4]; self-blocking: pre-treated with unlabeled 1 (1.0 mg/kg) 5 min prior)
COc1cc2c(cc1-c1c(C)noc1C)[nH]c1nc(C)nc(Nc3cc(C4CC4)nn3C)c12 [Compound 1]	< 1 nM	0.49 to 2.2 nM	high selectivity								
Cc1nc(Nc2cc(C3CC3)nn2C)c2c(n1)[nH]c1cc(-c3c(C)noc3C)c(O[11CH3])cc12 [[^11C]1]				highly distributed	~2 min	limited	0.9 % ID/cc	~50%	over 40%	~50%	over 40%
